Each compound was assayed against T1, human RIP1 kinase domain (2-375) (Homo sapiens, UniProt Q13546) (assay: RIP1 kinase inhibition biochemical assay (Transcreener ADP, fluorescence polarization)). Conditions: Ki app (Morrison tight-binding fit); 50 nM enzyme, 50 uM ATP, 2 hours incubation.
T1 construct: Purified human RIP1 kinase domain (2-375) (50 nM); made in house; host or cells: baculovirus-infected insect cells
T1 sequence (Q13546 2-375): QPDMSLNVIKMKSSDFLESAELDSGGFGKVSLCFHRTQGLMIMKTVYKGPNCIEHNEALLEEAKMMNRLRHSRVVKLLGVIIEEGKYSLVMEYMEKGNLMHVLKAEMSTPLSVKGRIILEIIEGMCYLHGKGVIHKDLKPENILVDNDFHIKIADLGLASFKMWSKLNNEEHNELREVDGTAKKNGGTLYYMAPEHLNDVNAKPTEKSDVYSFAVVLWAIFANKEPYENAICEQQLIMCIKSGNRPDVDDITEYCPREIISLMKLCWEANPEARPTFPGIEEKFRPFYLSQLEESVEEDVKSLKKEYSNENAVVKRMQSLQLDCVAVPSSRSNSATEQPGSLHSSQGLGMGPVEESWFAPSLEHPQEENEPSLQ
Method: RIP1 Kinase Inhibition Assays (Biochemical Assay)
The compounds of the present invention were tested for their capacity to inhibit RIP1K activity as described below.
The ability of the receptor interacting protein kinase (RIPK1) to catalyze the hydrolysis of adenosine-5′-triphosphate (ATP) is monitored using the Transcreener ADP (adenosine-5′-diphosphate) assay (BellBrook Labs). Purified human RIP1 kinase domain (2-375) (50 nM) derived from a baculovirus-infected insect cell expression system is incubated with test compounds for 2 hours in 50 mM Hepes buffer (pH 7.5) containing 30 mM MgCl2, 1 mM dithiothreitol, 50 uM ATP, 0.002% Brij-35, and 0.5% dimethyl sulfoxide (DMSO). Reactions are quenched by the addition of 1× Bell Brooks Stop buffer B (20 mM Hepes (ph7.5), 40 mM ethylenediaminetetraacetic acid and 0.02% Brij-35) containing an additional 12 mM EDTA and 55 ug/mL ADP2 antibody and 4 nM ADP-AlexaFluor® 633 tracer. The tracer bound to the antibody is displaced by the ADP generated during the RIP1K reaction, which causes a decrease in fluorescence polarization that is measured by laser excitation at 633 nm with a FP microplate reader M1000. Fractional activity was plotted against test article concentration. Using Genedata Screener software (Genedata; Basel, Switzerland), the data were fit to the tight-binding apparent inhibition constant (Ki^app) Morrison equation [Williams, J. W. and Morrison, J. F. (1979) The kinetics of reversible tight-binding inhibition. Methods Enzymol 63: 437-67]. The following equation was used to calculate fractional activity and Ki^app:
[formula] where [E]T and [I]T are the total concentrations of active enzyme and test article, respectively.
Exemplary compounds of the present invention are provided in Table 1 along with their physiochemical characterization and in vitro RIP1 kinase inhibitory activity data. “Method” in the first column of each table refers to the synthetic method(s) used to prepare each compound as shown in the Examples above. In certain examples, chiral column retention times (min) are provided for certain stereoisomers. Unless otherwise specified, the stereochemistry shown in each structure represents relative configuration of a single stereoisomer, and absolute configuration (i.e., “R” and/or “S”) is arbitrarily assigned. In some embodiments, where the Method is described to include the separation of stereoisomers, a single stereoisomer of a compound of Table 1 is provided.
With `Cc1nccn1-c1nc2n(n1)[C@H](c1ccccc1)C[C@@H]2F` (single isomer, unassigned) [Example 67] the Ki was 890 nM. Compound `F[C@H]1C[C@@H](c2ccccc2)n2nc(-n3cncn3)nc21` (single isomer, unassigned) [Example 68] has a Ki of 190 nM. `F[C@H]1C[C@@H](c2ccccc2)n2nc(-n3ccnc3Cl)nc21` (single isomer, unassigned) [Example 69] gave a Ki of 86 nM. Compound `Cc1ncn(-c2nc3n(n2)[C@H](c2ccccc2)C[C@@H]3F)c1C` (single isomer, unassigned) [Example 70] has a Ki of 180 nM. `Cn1ccn(-c2nc3n(n2)[C@H](c2ccccc2)C[C@@H]3F)c1=O` (single isomer, unassigned) [Example 71] was tested, and the Ki was 820 nM. `N#Cc1cccc2c1cnn2-c1nc2n(n1)[C@H](c1ccccc1)C[C@@H]2F` (single isomer, unassigned) [Example 72] showed a Ki of less than 5 nM. Compound `Cc1ncnn1-c1nc2n(n1)[C@H](c1ccccc1)C[C@@H]2F` (single isomer, unassigned) [Example 74] has a Ki of 70 nM. `F[C@H]1C[C@@H](c2ccccc2)n2nc(-n3cnc(Cl)c3)nc21` (single isomer, unassigned) [Example 75] gave a Ki of 100 nM. With `Fc1cn(-c2nc3n(n2)[C@H](c2ccccc2)C[C@@H]3F)cn1` (single isomer, unassigned) [Example 76] the Ki was 64 nM. Compound `N#CCc1cnn(-c2nc3n(n2)[C@H](c2ccccc2)C[C@@H]3F)c1` (single isomer, unassigned) [Example 77] has a Ki of 260 nM. Compound `F[C@H]1C[C@@H](c2ccccc2)n2nc(-n3cc(C4CC4)cn3)nc21` (single isomer, unassigned) [Example 79] has a Ki of 13 nM. With `CS(=O)(=O)c1cnn(-c2nc3n(n2)[C@H](c2ccccc2)C[C@@H]3F)c1` (single isomer, unassigned) [Example 80] the Ki was 190 nM. In the case of `F[C@H]1C[C@@H](c2ccccc2)n2nc(-n3nnc4ccccc43)nc21` (single isomer, unassigned) [Example 81], the Ki is reported as 5 nM. Compound `F[C@H]1C[C@@H](c2ccccc2)n2nc(-n3nnc4ccncc43)nc21` (single isomer, unassigned) [Example 83] has a Ki of 36 nM. Compound `F[C@H]1C[C@@H](c2ccccc2)n2nc(-n3ncc4ncccc43)nc21` (single isomer, unassigned) [Example 84] has a Ki of 29 nM. Compound `F[C@H]1C[C@@H](c2ccccc2)n2nc(-n3ncc4cnccc43)nc21` (single isomer, unassigned) [Example 89] has a Ki of 810 nM. `Cc1cc(C#N)nn1-c1nc2n(n1)[C@H](c1ccccc1)C[C@@H]2F` (single isomer, unassigned) [Example 91] was tested, and the Ki was 13 nM. In the case of `Cc1nn(-c2nc3n(n2)[C@H](c2ccccc2)C[C@@H]3F)cc1C#N` (single isomer, unassigned) [Example 92], the Ki is reported as 250 nM. `Cc1c(C#N)cnn1-c1nc2n(n1)[C@H](c1ccccc1)C[C@@H]2F` (single isomer, unassigned) [Example 93] showed a Ki of 5 nM. For `C[C@H]1C[C@@H]1c1nc2n(n1)[C@H](c1ccccc1)C[C@@H]2F` (single isomer, unassigned) [Example 95], the Ki was 39 nM. Work on `C[C@@H]1C[C@H]1c1nc2n(n1)[C@H](c1ccccc1)C[C@@H]2F` (single isomer, unassigned) [Example 96] yielded a Ki of 63 nM. For `C=C(CC)c1nc2n(n1)[C@H](c1ccccc1)C[C@@H]2F` (single isomer, unassigned) [Example 97], the Ki was 200 nM. With `Fc1ccccc1[C@@H]1CCc2nc(CC3CC3)nn21` (single isomer, unassigned) [Example 98] the Ki was 190 nM. In the case of `F[C@H]1C[C@@H](c2ccccc2)n2nc(-c3cnoc3)nc21` (single isomer, unassigned) [Example 99], the Ki is reported as 140 nM. With `N#CC1CN(c2nc3n(n2)[C@H](c2ccccc2)C[C@@H]3F)C1` (single isomer, unassigned) [Example 100] the Ki was 250 nM. Work on `Fc1ccccc1[C@@H]1C[C@H](F)c2nc(C(F)(F)C3CC3)nn21` (single isomer, unassigned) [Example 104] yielded a Ki of 4 nM. In the case of `CC1([C@@H](O)c2nc3n(n2)[C@H](c2ccccc2)C[C@@H]3F)CC1` (single isomer, unassigned) [Example 105], the Ki is reported as 350 nM. In the case of `F[C@H]1C[C@@H](c2ccccc2)n2nc([C@H](F)C3CC3)nc21` (single isomer, unassigned) [Example 107], the Ki is reported as 3.5 nM. For `F[C@H](c1nc2n(n1)[C@H](c1ccccc1)C[C@@H]2F)C1CC1` (single isomer, unassigned) [Example 109], the Ki was 12 nM. With `[2H][C@](F)(c1nc2n(n1)[C@H](c1ccccc1)C[C@@H]2F)C1CC1` (single isomer, unassigned) [Example 110] the Ki was 3.1 nM. Work on `[2H][C@@](F)(c1nc2n(n1)[C@H](c1ccccc1)C[C@@H]2F)C1CC1` (single isomer, unassigned) [Example 111] yielded a Ki of 4.9 nM. For `O[C@@H](c1cc2n(n1)[C@@H](c1ccccc1)C[C@H]2F)C1CC1` (single isomer, unassigned) [Example 114], the Ki was 100 nM. `O[C@H](c1cc2n(n1)[C@@H](c1ccccc1)C[C@H]2F)C1CC1` (single isomer, unassigned) [Example 115] was tested, and the Ki was 81 nM. `[2H]C([2H])(c1nc2n(n1)[C@H](c1ccccc1)C[C@@H]2F)C1CC1` (single isomer, unassigned) [Example 116] gave a Ki of 7.3 nM. For `FC(F)c1nc2n(n1)[C@@H](c1ccccc1)C[C@H]2F` (single isomer, unassigned) [Example 118], the Ki was 180 nM. With `F[C@H]1C[C@@H](c2ccccc2)n2nc(CC3CCC3)nc21` (stereo in doubt) [Example 94, (5S,7S)-2-(cyclobutylmethyl)-7-fluoro-5-phenyl-6,7-dihydro-5H-pyrrolo[1,2-b][1,2,4]triazole] the Ki was 16 nM. For `CCC(O)c1nc2n(n1)[C@H](c1ccccc1)C[C@@H]2F` (stereo partly shown) [Example 1], the Ki was 406 nM. In the case of `CCC(F)c1nc2n(n1)C(c1ccccc1)CC2F` (stereo not drawn) [Example 3, Cis-7-fluor-2-(1-fluoropropyl)-5-phenyl-6,7-dihydro-5H-pyrrolo[1,2-b][1,2,4]triazole], the Ki is reported as 51 nM. For `OC(c1nc2n(n1)C(c1ccccc1)CC2F)C(F)(F)F` [Example 4, cis-(5S,7S)-2,2,2-trifluoro-1-(7-fluoro-5-phenyl-6,7-dihydro-5H-pyrrolo[1,2-b][1,2,4]triazol-2-yl)ethanol], the Ki was 470 nM. Work on `CCC(C)(F)c1nc2n(n1)C(c1ccccc1)CC2F` [Example 6, Cis-(5S,7S)-2-(1-fluoro-1-methyl-propyl)-7-fluoro-5-phenyl-6,7-dihydro-5H-pyrrolo[1,2-b][1,2,4]triazole] yielded a Ki of 69 nM. In the case of `F[C@H]1C[C@@H](c2ccccc2)n2nc(CC3CC3(F)F)nc21` (stereo partly drawn) [Example 20, (5S,7S)-2-[(2,2-difluorocyclopropyl)methyl]-7-fluoro-5-phenyl-6,7-dihydro-5H-pyrrolo[1,2-b][1,2,4]triazole], the Ki is reported as 4 nM. Work on `F[C@H]1C[C@@H](c2ccccc2)n2nc(C3CC3(F)F)nc21` (stereo partly drawn) [Example 28, (5S,7S)-2-(2,2-difluorocyclopropyl)-7-fluoro-5-phenyl-6,7-dihydro-5H-pyrrolo[1,2-b][1,2,4]triazole] yielded a Ki of 70 nM. For `CC1(C)CC1c1nc2n(n1)[C@H](c1ccccc1)C[C@@H]2F` (stereo partly drawn) [Example 30, (5S,7S)-2-(2,2-dimethylcyclopropyl)-7-fluoro-5-phenyl-6,7-dihydro-H-pyrrolo[1,2-b][1,2,4]triazole], the Ki was 81 nM.

— patent publication US11673892B2, “Bicyclic compounds for use as RIP1 kinase inhibitors” (Genentech, Inc., priority 2017, dated 2023)
